PMC6268373, “Systematic Study of the Physicochemical Properties of a Homologous Series of Aminobisphosphonates” (Molecules, 2012)
Converted amounts (≈) assume the structure as drawn.

What was measured:
[1] = Protonation constants by (traditional) potentiometric titration (TPT), SUPERQUAD; details: 0.1 M NaNO3, 25 °C; for logβx ± 3σ, x = 1 (H3L−) / logβx ± 3σ, x = 2 (H4L) / logβx ± 3σ, x = 3 (H5L+) / logβx ± 3σ, x = −1 (HL3−) / logβx ± 3σ, x = −2 (L4−): overall protonation, zero level H2L2−; for pKa: aqueous 0.1 M NaNO3, log K, TPT
Description: Results were obtained from […] as overall stability constants (log β values); following the chosen zero level H2L^2−. This zero level H2L^2− was chosen in the calculations to avoid any accumulation of errors of protonation constants at different pH ranges. The log β results for reactions (4) and (5) obtained in the final refinements are listed in Table S3 (see Supporting Information) with error limits (±3σ), number of points/number of titrations and χ^2/Σ statistics.
The details of the experiments using (traditional) potentiometric titration are presented in the Supporting Information. The results of the determination by Sirius instrument are shown in the Supporting Information. Potentiometric titrations of the compounds were performed with the PCA200 apparatus (Sirius Analytical Instruments Ltd, Forest Row, East Sussex, UK).
Table S2. The effect of pH on aqueous solubility (mg/L) of aminoalkylbis(phosphonates) […]
Solubility (g/L) of Compound
Determination of the Protonation Constants Using (traditional) Potentiometric Titration. Reagents:
Aqueous 0.1 M NaOH was prepared from Titrisol ampoules (Merck) and 0.1 M HNO3 from Convol ampoules (BDH). The background solution was prepared by dissolving NaNO3 in deionised water.
The NaNO3 and NaCl used in reference electrode were p.a. grade (Merck). The water used in the dilutions and titration solutions was purified with Milli-RO and Milli-Q water purification systems […]
Potentiometric measurements: The protonation equilibria was studied in aqueous 0.1 M NaNO3 at 25.0 ± 0.1 °C through a series of potentiometric EMF titrations carried out with a Schott-Geräte GmbH […]
The cell arrangement for the measurement of the hydrogen ion concentration [H+] was as follows:
−RE […] equilibrium solution […] GE+ (1) where GE denotes a glass electrode (Schott N2680), and RE is Hg, Hg2Cl2 […] 0.01 M NaCl, 0.09 M NaNO3. Expression (2) is valid assuming that the activity coefficients are constant.
The cell parameter E0 and the liquid junction coefficient jH, valid in acidic solutions, were determined for each titration by adding a known amount of HNO3 to the background electrolyte. The value of the liquid junction coefficient jOH, valid in basic solutions, was determined periodically. Only stable EMF readings were used in the calculations.
During the measurements of the protonation equilibria, aqueous 0.1 M NaOH or 0.1 M HNO3 was […]
Four to eight independent titrations were carried out for each ligand. The number of data points used in […]
Data treatment: Protonation and deprotonation of the ligands were controlled by addition of HNO3 or NaOH. The curves of ZH versus pH were drawn to visualize the experimental data sets. ZH describes the average number of H+ ions added or liberated per mole of ligand and is given by the relationship […]
where CH denotes the total concentration of protons calculated over the zero level H2L2−.
In the evaluation of the equilibrium constants, the following two-component equilibria were utilized:
H2L2− ⇋ H2-xL(2+x)– + xH+ , x = 1–2; β–x (4) xH+ + H2L2− ⇋ Hx+2Lx–2, x = 1–3; βx (5)
Mathematical analysis of the systems involves a search for protonation models and equilibrium constants that best describe the experimental data. The calculations were carried out with the computer […]
1200). The sample standard deviation Σ and the χ2 statistics used as criteria in the selection of the models were those provided by the program. As a means to improve the confidence level, the error limits for log β values determined in this study are reported as three times the standard deviation estimated by the program.
Figure S2. ZH vs. pH for protonation of compounds (a) 1; (b) 2; (c) 3; (d) 4 and (e) 5.

[2] = Thermal analysis (TG/DTA and TGA 7); format: physicochemical; details: for Td / Td (decomposition onset): air; for Td: 5 °C/min; for Temp. range of 1st cleavage: lower limit taken at 0.5 wt-%; for Td (decomposition onset): average from both instruments, heating rate 5 °C/min
Method: Thermal decomposition paths with evaluation of crystal water content were obtained parallel with two instruments; Perkin Elmer STA 6000 thermogravimetric TG/DTA and Perkin Elmer TGA 7 analyzers (Perkin Elmer, Massachusetts, USA). Measurements were carried out in an open platinum crucible (the higher 5 mm crucible was used in TG/DTA and a shallower 2 mm crucible in TGA 7) under air atmosphere (flow rate of 45 mL/min) with a heating rate of 5 °C/min over the temperature range of 25−700 °C. The temperature calibration of STA 6000 was made using melting points of indium (156.60 °C) and zinc (419.5 °C) standards. For TGA 7 magnetic Curie-point calibration technique (Alumel, Ni, Perkalloy, Fe) was used. The weight balance of both instruments was calibrated by measuring a standard weight of 50 mg at room temperature. The sample weights used in the measurements were about 4–8 mg, and for each bisphosphonate, it was attempted to keep the same on both instruments. The melting/dehydration/decomposition behavior of the compounds was also visually monitored using a Stuart Scientific SMP3 melting point apparatus.

[3] = Aqueous solubility of saturated solution at 21 °C (phosphorus determination by molybdenum blue spectrophotometry); details: 21 °C; for pH of saturated solution: saturated aqueous solution, agitation time 30 min; for solubility at 30 min: Milli-Q water, unbuffered, water, thermodynamic from solid
[4] = pKa determination with Sirius instrument (PCA200)
[5] = Effect of temperature on aqueous solubility; details: Milli-Q water, unbuffered, thermodynamic from solid
Method: A Jasco V-530 UV/Vis spectrophotometer was used for phosphorus determination at 880 nm wavelength. Filtered liquid samples were diluted to the appropriate volume with Milli-Q water and were digested with the persulphate oxidation technique in acidic medium at elevated temperature to convert aminobisphosponates to orthophosphate. In an acidic medium, ammonium molybdate and antimony potassium tartrate react with orthophosphate to form a phosphomolybdic acid that is reduced to intensively colored molybdenum blue by ascorbic acid [30].
The mixture containing an excess of the studied compound was first agitated for predetermined time with magnetic stirrer and before taking the sample mixture was allowed to stand for 24 h without stirring. The sample (about 5 mL) was taken from liquid above the solids, pH was measured and the sample was filtered through 0.2 µm membrane filter to remove any possible insoluble particles. The phosphorus concentration in the filtered sample solution was determined by using the spectrophotometric method described above.

[6] = pKa1 (H4L + H+ ⇋ H5L+), approximate values

SMILES	logβx ± 3σ, x = 1 (H3L−) [1]	logβx ± 3σ, x = 2 (H4L) [1]	logβx ± 3σ, x = 3 (H5L+) [1]	logβx ± 3σ, x = −1 (HL3−) [1]	logβx ± 3σ, x = −2 (L4−) [1]	Td ([2]; TG/DTA, higher crucible)	Temp. range of 1st cleavage ([2]; TG/DTA, higher crucible)	Td ([2]; TGA 7, shallow crucible)	Temp. range of 1st cleavage ([2]; TGA 7, shallow crucible)	Td (decomposition onset) [2]	pH of saturated solution [3]	pKa [1, 6]	pKa ([1]; pKa2 (H3L− + H+ ⇋ H4L))	pKa ([1]; pKa3 (H2L2− + H+ ⇋ H3L−))	pKa ([1]; pKa4 (HL3− + H+ ⇋ H2L2−))	pKa ([1]; pKa5 (L4− + H+ ⇋ HL3−))	Onset temperature of first cleavage ([2]; TG/DTA, higher crucible)	Onset temperature of first cleavage ([2]; TGA 7, shallow crucible)	pKa 2 (Sirius) [4]	pKa 3 (Sirius) [4]	also measured
NCCCC(O)(P(=O)(O)O)P(=O)(O)O [Compound 2, (4-amino-1-hydroxybutylidene)bisphosphonic acid, reference compound]	6.26 ± 0.01	8.38 ± 0.02	8.98 ± 0.20	−10.69 ± 0.01	−22.82 ± 0.02	222 °C	168–252 °C	225 °C	166–253 °C	224 °C	1.94	–	–	–	–	–	–	–	–	–	Onset of 1st cleavage (in parentheses) ([2]; TG/DTA, higher crucible): 222 °C; Onset of 1st cleavage (in parentheses) ([2]; TGA 7, shallow crucible): 225 °C
NCCCCC(O)(P(=O)(O)O)P(=O)(O)O [Compound 3, (5-Amino-1-hydroxypentylidene)bisphosphonic acid]	6.44 ± 0.02	8.74 ± 0.03	9.36 ± 0.51	−10.78 ± 0.02	−22.83 ± 0.03	217 °C	198–252 °C	224 °C	195–265 °C	220 °C	2.22	0.62	2.3	6.44	10.8	12.1	217 °C	224 °C	1.92	2.42	pKa 4 (Sirius) [4]: 6.40; solubility at 30 min [3]: 4010 µg/mL (≈ 15.2 mM)
NCCCCCCCC(O)(P(=O)(O)O)P(=O)(O)O [Compound 5, (8-Amino-1-hydroxyoctylidene)bisphosphonic acid]	6.75 ± 0.03	9.27 ± 0.05	10.35 ± 0.24	−10.67 ± 0.03	−22.32 ± 0.02	193 °C	182–212 °C	197 °C	175–222 °C	195 °C	2.61	1.08	2.52	6.75	10.7	11.7	193 °C	197 °C	3.10	6.46	solubility at 24 h ([5]; 4 °C): 1850 µg/mL (≈ 6.06 mM); solubility at 24 h ([5]; 7.6 °C): 1900 µg/mL (≈ 6.23 mM); solubility at 24 h ([5]; 21 °C): 2100 µg/mL (≈ 6.88 mM); solubility at 24 h ([5]; 30 °C): 2270 µg/mL (≈ 7.44 mM); solubility at 24 h ([5]; 40 °C): 2400 µg/mL (≈ 7.86 mM); solubility at 24 h ([5]; 50 °C): 3450 µg/mL (≈ 11.3 mM); pKa 4 (Sirius) [4]: 7.12; pKa 5 (Sirius) [4]: 10.77; solubility at 30 min [3]: 2100 µg/mL (≈ 6.88 mM)
